# Measurements published in ChEMBL document CHEMBL1156945, “Discovery of a novel selective PPARgamma modulator from (-)-Cercosporamide derivatives” (Bioorg Med Chem Lett, 2010).
# pEC50, pIC50, pKi: −log10 of the molar value. Active and inactive are the calls of the source. The rule behind the calls is not given here.
# Tests used:
# [1] = biological target: T1, Peroxisome proliferator-activated receptor gamma (Homo sapiens, UniProt P37231)
# T1 sequence (P37231 whole entry): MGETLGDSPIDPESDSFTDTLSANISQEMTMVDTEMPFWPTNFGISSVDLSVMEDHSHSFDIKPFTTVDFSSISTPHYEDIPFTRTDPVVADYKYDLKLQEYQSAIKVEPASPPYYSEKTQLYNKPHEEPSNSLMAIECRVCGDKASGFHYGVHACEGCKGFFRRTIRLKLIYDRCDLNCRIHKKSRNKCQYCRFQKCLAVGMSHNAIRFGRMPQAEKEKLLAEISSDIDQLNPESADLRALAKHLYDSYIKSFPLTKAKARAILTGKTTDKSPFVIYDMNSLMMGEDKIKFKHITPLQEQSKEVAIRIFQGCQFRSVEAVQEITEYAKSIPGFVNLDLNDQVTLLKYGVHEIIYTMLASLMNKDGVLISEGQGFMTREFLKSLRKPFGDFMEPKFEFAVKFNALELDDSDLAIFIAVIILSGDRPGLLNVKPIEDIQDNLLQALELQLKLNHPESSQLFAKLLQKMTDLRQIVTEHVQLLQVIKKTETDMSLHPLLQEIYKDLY
# Description: (§1) Agonist activity at PPARgamma assessed as transcriptional activation
# Mus musculus [2] = organism: Mus musculus; experiment: Antihyperglycemic activity in KK/Ta mouse assessed as reduction in food intake at 0.01% in diet after 7 days relative to control; format: functional; parameters: scale not given: the % may be the effect or the level left
# Mus musculus [3] = organism: Mus musculus; experiment: Antihyperglycemic activity in KK/Ta mouse assessed as reduction in body weight at 0.01% in diet after 7 days relative to control; format: functional; parameters: scale not given: the % may be the effect or the level left
# Mus musculus [4] = organism: Mus musculus; experiment: Antihyperglycemic activity in KK/Ta mouse assessed as reduction in plasma glucose level at 0.01% in diet relative to control; format: functional; parameters: scale not given: the % may be the effect or the level left
# [5] = biological target: T1, Peroxisome proliferator-activated receptor gamma; remark: listed apart in the source
# Description: as §1
# [6] = biological target: T1, Peroxisome proliferator-activated receptor gamma; experiment: Binding affinity to PPARgamma
# [7] = biological target: T2, Peroxisome proliferator-activated receptor delta (Homo sapiens) (UniProt Q03181); experiment: Agonist activity at PPARdelta by transactivation assay; format: functional
# T2 sequence (whole entry): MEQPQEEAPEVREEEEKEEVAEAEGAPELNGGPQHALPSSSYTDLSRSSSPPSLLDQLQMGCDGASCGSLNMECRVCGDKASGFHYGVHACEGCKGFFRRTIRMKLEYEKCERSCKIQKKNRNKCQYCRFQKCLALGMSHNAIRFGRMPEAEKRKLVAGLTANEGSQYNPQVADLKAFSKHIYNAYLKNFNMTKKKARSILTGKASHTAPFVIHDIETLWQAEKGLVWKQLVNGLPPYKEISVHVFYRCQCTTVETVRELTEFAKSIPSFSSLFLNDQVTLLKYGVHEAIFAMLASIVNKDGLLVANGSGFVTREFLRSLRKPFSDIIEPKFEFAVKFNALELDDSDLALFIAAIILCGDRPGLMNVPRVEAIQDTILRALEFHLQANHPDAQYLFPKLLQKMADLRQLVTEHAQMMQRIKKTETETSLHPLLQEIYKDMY
# Mus musculus [8] = experiment: Toxicity in db/db mouse assessed as heart weight administered at 0.1% in diet (Rvb=102+/-4.8 mg); format: organism-based; details: in vivo, po
# Mus musculus [9] = experiment: Toxicity in db/db mouse assessed as heart weight administered at 0.01% in diet (Rvb=102+/-4.8 mg); format: organism-based; details: in vivo, po
# [10] = biological target: T3, Peroxisome proliferator-activated receptor alpha (Homo sapiens) (UniProt Q07869); experiment: Agonist activity at PPARalpha by transactivation assay; format: functional
# T3 sequence (whole entry): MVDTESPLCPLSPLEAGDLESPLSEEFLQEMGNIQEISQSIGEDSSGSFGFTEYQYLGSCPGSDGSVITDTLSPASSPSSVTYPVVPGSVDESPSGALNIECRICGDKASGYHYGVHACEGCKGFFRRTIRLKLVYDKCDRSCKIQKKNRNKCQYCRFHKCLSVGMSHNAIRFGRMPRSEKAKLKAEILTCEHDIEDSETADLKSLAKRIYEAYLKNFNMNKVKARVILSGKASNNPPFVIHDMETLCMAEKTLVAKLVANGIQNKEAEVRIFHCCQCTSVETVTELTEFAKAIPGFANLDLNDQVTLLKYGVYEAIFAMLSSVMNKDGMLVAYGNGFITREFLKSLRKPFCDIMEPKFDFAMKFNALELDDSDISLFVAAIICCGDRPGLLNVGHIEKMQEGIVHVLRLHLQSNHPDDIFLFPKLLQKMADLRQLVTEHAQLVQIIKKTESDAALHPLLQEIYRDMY
# [11] = biological target: T1, Peroxisome proliferator-activated receptor gamma; experiment: Inhibition of PPARgamma assessed as transcriptional activity
pEC50 [1],Compound,also measured
6.11,COC1Oc2cc(O)c3c(c2C(=O)N1C(=O)NCc1ccc(Cl)cc1)OC1=CC(O)=C(C(C)=O)C(=O)[C@]13C (stereo partly drawn),
5.92,COC1Oc2cc(O)c3c(c2C(=O)N1C(=O)NCc1cccs1)OC1=CC(O)=C(C(C)=O)C(=O)[C@]13C (stereo partly drawn),
,CC(=O)C1=C(O)C=C2Oc3c4c(cc(O)c3[C@]2(C)C1=O)OC(C)(C)NC4=O,Activity (Mus musculus [2]): 78%; Activity (Mus musculus [3]): 102%; Activity (Mus musculus [4]): 56%
5.77,COc1ccc(CNC(=O)N2C(=O)c3c(cc(O)c4c3OC3=CC(O)=C(C(C)=O)C(=O)[C@]34C)OC2OC)cc1 (stereo partly drawn),
5.64,COC1Oc2cc(O)c3c(c2C(=O)N1C(=O)NCc1cc2ccccc2o1)OC1=CC(O)=C(C(C)=O)C(=O)[C@]13C (stereo partly drawn),
5.22,COC1Oc2cc(O)c3c(c2C(=O)N1C(=O)NCc1ccc([N+](=O)[O-])cc1)OC1=CC(O)=C(C(C)=O)C(=O)[C@]13C (stereo partly drawn),
5.17,COC1Oc2cc(O)c3c(c2C(=O)N1C(=O)NCc1cccc(Cl)c1)OC1=CC(O)=C(C(C)=O)C(=O)[C@]13C (stereo partly drawn),
4.96,COC1Oc2cc(O)c3c(c2C(=O)N1C(=O)NCc1cccnc1)OC1=CC(O)=C(C(C)=O)C(=O)[C@]13C (stereo partly drawn),
,COC1Oc2cc(O)c3c(c2C(=O)N1C(=O)NCc1ccccn1)OC1=CC(O)=C(C(C)=O)C(=O)[C@]13C (stereo partly drawn),EC50 [5]: Not Active
,CC(=O)C1=C(O)C=C2Oc3c4c(cc(O)c3[C@]2(C)C1=O)OC(C)(C)N(Cc1ccccc1)C4=O,Activity (Mus musculus [2]): 74%; Activity (Mus musculus [3]): 103%; Activity (Mus musculus [4]): 55%
5.80,COC1Oc2cc(O)c3c(c2C(=O)N1C(=O)NCc1ccccc1[N+](=O)[O-])OC1=CC(O)=C(C(C)=O)C(=O)[C@]13C (stereo partly drawn),
5.62,COC1Oc2cc(O)c3c(c2C(=O)N1C(=O)NCc1cccc([N+](=O)[O-])c1)OC1=CC(O)=C(C(C)=O)C(=O)[C@]13C (stereo partly drawn),
5.42,COc1cccc(CNC(=O)N2C(=O)c3c(cc(O)c4c3OC3=CC(O)=C(C(C)=O)C(=O)[C@]34C)OC2OC)c1 (stereo partly drawn),
5.42,COC1Oc2cc(O)c3c(c2C(=O)N1C(=O)NCc1cc2ccccc2s1)OC1=CC(O)=C(C(C)=O)C(=O)[C@]13C (stereo partly drawn),
5.49,COC1Oc2cc(O)c3c(c2C(=O)N1C(=O)NCc1ccoc1)OC1=CC(O)=C(C(C)=O)C(=O)[C@]13C (stereo partly drawn),
5.36,COC1Oc2cc(O)c3c(c2C(=O)N1C(=O)NCc1ccsc1)OC1=CC(O)=C(C(C)=O)C(=O)[C@]13C (stereo partly drawn),

Compound,pEC50 [1],also measured
COC1Oc2cc(O)c3c(c2C(=O)N1C(=O)NCc1ccccc1Cl)OC1=CC(O)=C(C(C)=O)C(=O)[C@]13C (stereo partly drawn),6.55,
COc1cc(O)c2c(c1C(=O)NCc1ccccc1)OC1=CC(O)=C(C(C)=O)C(=O)[C@]12C,6.66,Activity (Mus musculus [2]): 100%; Activity (Mus musculus [3]): 101%; Activity (Mus musculus [4]): 69%
COC1Oc2cc(O)c3c(c2C(=O)N1C(=O)NCc1cccc2ccccc12)OC1=CC(O)=C(C(C)=O)C(=O)[C@]13C (stereo partly drawn),6.74,pKi [6]: 7.09; Activity [7]: inactive; Activity (Mus musculus [8]): 103.8 mg; Activity (Mus musculus [9]): 102.8 mg; Activity [10]: inactive
COC1Oc2cc(O)c3c(c2C(=O)N1C(=O)NCc1ccco1)OC1=CC(O)=C(C(C)=O)C(=O)[C@]13C (stereo partly drawn),6.25,pIC50 [11]: 4.89
